Measured values from PubChem BioAssay AID1745844 (Carcinogenic Potency Database (CPDB), 2022).
Several values for one entry are separate records, joined by “and”; a condition that tells them apart may be missing. Equal values may be shown once. Activity calls are given as the source filed them. No rule for the calls is given here.

System: rodent lifetime carcinogenesis bioassay, tumor incidence TD50
Test: carcinogenic potency in animals, long-term in vivo studies, CPDB compilation (AID 1745844)

With `CC/C(=C(/CC)c1ccc(O)cc1)c1ccc(O)cc1` the TD50 (mouse, strain (C57BL/6 x BALB/c)F1, females, in feed, site: cervix, lesion: squamous-cell carcinoma, dosed 148 weeks, study length 161 weeks) was 1.98 mg/kg/day, the carcinogen call (mouse, strain (C57BL/6 x BALB/c)F1, females, in feed, site: mammary gland, lesion: adenocarcinoma, type B, dosed 148 weeks, study length 161 weeks) was “positive” and the TD50 (mouse, strain (C57BL/6 x BALB/c)F1, females, in feed, site: pituitary gland, lesion: adenocarcinoma, dosed 148 weeks, study length 161 weeks) was 2.01 mg/kg/day. For the same compound, the TD50 (mouse, strain (C57BL/6 x BALB/c)F1, females, in feed, site: pituitary gland, lesion: adenoma, dosed 148 weeks, study length 161 weeks) was 0.0387 mg/kg/day, the TD50 (mouse, strain (C57BL/6 x BALB/c)F1, males, in feed, site: pituitary gland, lesion: adenoma, dosed 150 weeks, study length 169 weeks) was 0.0722 mg/kg/day and the TD50 (mouse, strain (C57BL/6 x BALB/c)F1, males, in feed, site: testis, lesion: interstitial-cell tumor, dosed 150 weeks, study length 169 weeks) was 0.0408 mg/kg/day. For the same compound, the TD50 (mouse, strain BALB/cStCrlfC3Hf/Nctr, females, in feed, site: cervix, lesion: adenoacanthoma, dosed 132 weeks, study length 133 weeks) was 1.28 mg/kg/day, the TD50 (mouse, strain BALB/cStCrlfC3Hf/Nctr, females, in feed, site: cervix, lesion: squamous-cell carcinoma, dosed 132 weeks, study length 133 weeks) was 0.311 mg/kg/day and the TD50 (mouse, strain BALB/cStCrlfC3Hf/Nctr, females, in feed, site: mammary gland, lesion: adenoacanthoma, dosed 132 weeks, study length 133 weeks) was 1.88 mg/kg/day. It also gave a TD50 (mouse, strain BALB/cStCrlfC3Hf/Nctr, females, in feed, site: mammary gland, lesion: adenocarcinoma, type B, dosed 132 weeks, study length 133 weeks) of 0.476 mg/kg/day, a TD50 (mouse, strain BALB/cStCrlfC3Hf/Nctr, females, in feed, site: ovary, lesion: granulosa-cell tumor, dosed 132 weeks, study length 133 weeks) of 0.166 mg/kg/day and a TD50 (mouse, strain BALB/cStCrlfC3Hf/Nctr, females, in feed, site: pituitary gland, lesion: adenocarcinoma, dosed 132 weeks, study length 133 weeks) of 5.1 mg/kg/day. The TD50 (mouse, strain BALB/cStCrlfC3Hf/Nctr, females, in feed, site: pituitary gland, lesion: adenoma, dosed 132 weeks, study length 133 weeks) was 0.2 mg/kg/day, the TD50 (mouse, strain BALB/cStCrlfC3Hf/Nctr, females, in feed, site: uterus, lesion: adenocarcinoma, dosed 132 weeks, study length 133 weeks) was 5.32 mg/kg/day and the TD50 (mouse, strain BALB/cStCrlfC3Hf/Nctr, females, in feed, site: vagina, lesion: squamous-cell carcinoma, dosed 132 weeks, study length 133 weeks) was 1.31 mg/kg/day. The TD50 (mouse, strain BALB/cStCrlfC3Hf/Nctr, males, in feed, site: pituitary gland, lesion: adenoma, dosed 121 weeks, study length 126 weeks) was 0.171 mg/kg/day, the TD50 (mouse, strain BALB/cStCrlfC3Hf/Nctr, males, in feed, site: testis, lesion: interstitial-cell tumor, dosed 121 weeks, study length 126 weeks) was 0.0215 mg/kg/day and the TD50 (mouse, strain C3H (MTV+), females, in feed, site: mammary gland, lesion: adenocarcinoma, dosed 104 weeks, study length 104 weeks) was 0.026 mg/kg/day. The TD50 (mouse, strain C3H (MTV+), females, in feed, site: mammary gland, lesion: carcinoma, dosed 85 weeks, study length 85 weeks) was 0.0292 mg/kg/day, the TD50 (mouse, strain C3H/AnCum, males, in feed, site: mammary gland, lesion: carcinoma, dosed 104 weeks, study length 104 weeks) was 0.0359 mg/kg/day and 0.0421 mg/kg/day and 0.0789 mg/kg/day and the TD50 (mouse, strain C3H/HeJ (MTV+), females, in feed, site: mammary gland, lesion: adenocarcinoma, dosed 52 weeks, study length 52 weeks) was 0.0825 mg/kg/day. The TD50 (mouse, strain C3H/HeJ (MTV+), females, in feed, site: mammary gland, lesion: adenocarcinoma, dosed 104 weeks, study length 104 weeks) was 14.2 mg/kg/day, the TD50 (mouse, strain C3H/HeJ (MTV+), females, in feed, site: ovary, lesion: tubular adenoma, dosed 78 weeks, study length 78 weeks) was 0.0222 mg/kg/day and the TD50 (mouse, strain C3H/HeN-MTV-/Nctr (MTV-), females, in feed, site: all sites, lesion: mesothelioma, dosed 112 weeks, study length 112 weeks) was 0.928 mg/kg/day. The TD50 (mouse, strain C3H/HeN-MTV-/Nctr (MTV-), females, in feed, site: all sites, lesion: mesothelioma, dosed 123 weeks, study length 123 weeks) was 0.487 mg/kg/day, the TD50 (mouse, strain C3H/HeN-MTV-/Nctr (MTV-), females, in feed, site: all sites, lesion: mesothelioma, dosed 125 weeks, study length 125 weeks) was 0.52 mg/kg/day and the TD50 (mouse, strain C3H/HeN-MTV-/Nctr (MTV-), females, in feed, site: cervix uteri, lesion: adenocarcinoma, dosed 112 weeks, study length 112 weeks) was 2.47 mg/kg/day. The TD50 (mouse, strain C3H/HeN-MTV-/Nctr (MTV-), females, in feed, site: cervix uteri, lesion: adenocarcinoma, dosed 123 weeks, study length 123 weeks) was 1.66 mg/kg/day, the TD50 (mouse, strain C3H/HeN-MTV-/Nctr (MTV-), females, in feed, site: cervix uteri, lesion: adenocarcinoma, dosed 125 weeks, study length 125 weeks) was 1.17 mg/kg/day and the TD50 (mouse, strain C3H/HeN-MTV-/Nctr (MTV-), females, in feed, site: mammary gland, lesion: adenocarcinoma, type A, dosed 107 weeks, study length 107 weeks) was 2.63 mg/kg/day. It also gave a TD50 (mouse, strain C3H/HeN-MTV-/Nctr (MTV-), females, in feed, site: mammary gland, lesion: adenocarcinoma, type A, dosed 123 weeks, study length 123 weeks) of 4.39 mg/kg/day, a TD50 (mouse, strain C3H/HeN-MTV-/Nctr (MTV-), females, in feed, site: mammary gland, lesion: adenocarcinoma, type A, dosed 125 weeks, study length 125 weeks) of 2.1 mg/kg/day and a TD50 (mouse, strain C3H/HeN-MTV-/Nctr (MTV-), females, in feed, site: mammary gland, lesion: adenocarcinoma, type B, dosed 107 weeks, study length 107 weeks) of 0.0302 mg/kg/day. The TD50 (mouse, strain C3H/HeN-MTV-/Nctr (MTV-), females, in feed, site: mammary gland, lesion: adenocarcinoma, type B, dosed 112 weeks, study length 112 weeks) was 0.0434 mg/kg/day, the TD50 (mouse, strain C3H/HeN-MTV-/Nctr (MTV-), females, in feed, site: mammary gland, lesion: adenocarcinoma, type B, dosed 123 weeks, study length 123 weeks) was 0.118 mg/kg/day and the TD50 (mouse, strain C3H/HeN-MTV-/Nctr (MTV-), females, in feed, site: mammary gland, lesion: adenocarcinoma, type B, dosed 125 weeks, study length 125 weeks) was 0.0956 mg/kg/day. The TD50 (mouse, strain C3H/HeN-MTV-/Nctr (MTV-), females, in feed, site: mammary gland, lesion: several types, types named in the paper, dosed 107 weeks, study length 107 weeks) was 0.0247 mg/kg/day, the TD50 (mouse, strain C3H/HeN-MTV-/Nctr (MTV-), females, in feed, site: mammary gland, lesion: several types, types named in the paper, dosed 112 weeks, study length 112 weeks) was 0.0427 mg/kg/day and the TD50 (mouse, strain C3H/HeN-MTV-/Nctr (MTV-), females, in feed, site: mammary gland, lesion: several types, types named in the paper, dosed 123 weeks, study length 123 weeks) was 0.115 mg/kg/day. For the same compound, the TD50 (mouse, strain C3H/HeN-MTV-/Nctr (MTV-), females, in feed, site: mammary gland, lesion: several types, types named in the paper, dosed 125 weeks, study length 125 weeks) was 0.0872 mg/kg/day, the TD50 (mouse, strain C3H/HeN-MTV-/Nctr (MTV-), females, in feed, site: uterus, lesion: endometrial adenocarcinoma, dosed 112 weeks, study length 112 weeks) was 2.05 mg/kg/day and the TD50 (mouse, strain C3H/HeN-MTV-/Nctr (MTV-), females, in feed, site: uterus, lesion: endometrial adenocarcinoma, dosed 123 weeks, study length 123 weeks) was 1.87 mg/kg/day. For the same compound, the TD50 (mouse, strain C3H/HeN-MTV-/Nctr (MTV-), females, in feed, site: uterus, lesion: endometrial adenocarcinoma, dosed 125 weeks, study length 125 weeks) was 1.71 mg/kg/day, the TD50 (mouse, strain C3HeB/FeJ, females, in feed, site: mammary gland, lesion: adenocarcinoma, dosed 78 weeks, study length 78 weeks) was 0.295 mg/kg/day and the TD50 (mouse, strain C3HeB/FeJ, females, in feed, site: ovary, lesion: tubular adenoma, dosed 78 weeks, study length 78 weeks) was 0.329 mg/kg/day. The TD50 (mouse, strain C3HeB/FeJ, females, in feed, site: ovary, lesion: tubular adenoma, dosed 104 weeks, study length 104 weeks) was 0.597 mg/kg/day, the TD50 (mouse, strain C57BL/6, females, in feed, site: pituitary gland, lesion: adenoma, dosed 118 weeks, study length 143 weeks) was 0.0259 mg/kg/day and the carcinogen call (mouse, strain C57BL/6, females, in feed, site: thyroid gland, lesion: follicular-cell tumor, dosed 118 weeks, study length 143 weeks) was “positive”. It also gave a TD50 (mouse, strain C57BL/6, males, in feed, site: pituitary gland, lesion: adenocarcinoma, dosed 125 weeks, study length 153 weeks) of 1.42 mg/kg/day, a TD50 (mouse, strain C57BL/6, males, in feed, site: pituitary gland, lesion: adenoma, dosed 125 weeks, study length 153 weeks) of 0.0176 mg/kg/day and a TD50 (mouse, strain C57BL/6, males, in feed, site: testis, lesion: interstitial-cell tumor, dosed 125 weeks, study length 153 weeks) of 0.257 mg/kg/day. It also gave a TD50 (mouse, strain C57BL/6, males, in feed, site: thyroid gland, lesion: follicular-cell tumor, dosed 125 weeks, study length 153 weeks) of 0.05 mg/kg/day, a TD50 (mouse, strain Monohybrid cross offspring of B6CF1 (C57BL/6 x BALB/c), females, in feed, site: cervix, lesion: squamous-cell carcinoma, dosed 144 weeks, study length 153 weeks) of 1.03 mg/kg/day and a TD50 (mouse, strain Monohybrid cross offspring of B6CF1 (C57BL/6 x BALB/c), females, in feed, site: ovary, lesion: granulosa-cell tumor, dosed 144 weeks, study length 153 weeks) of 1.74 mg/kg/day. The TD50 (mouse, strain Monohybrid cross offspring of B6CF1 (C57BL/6 x BALB/c), females, in feed, site: pituitary gland, lesion: adenocarcinoma, dosed 144 weeks, study length 153 weeks) was 17 mg/kg/day, the TD50 (mouse, strain Monohybrid cross offspring of B6CF1 (C57BL/6 x BALB/c), females, in feed, site: pituitary gland, lesion: adenoma, dosed 144 weeks, study length 153 weeks) was 0.0456 mg/kg/day and the TD50 (mouse, strain Monohybrid cross offspring of B6CF1 (C57BL/6 x BALB/c), females, in feed, site: thyroid gland, lesion: follicular-cell adenoma, dosed 144 weeks, study length 153 weeks) was 0.186 mg/kg/day. The TD50 (mouse, strain Monohybrid cross offspring of B6CF1 (C57BL/6 x BALB/c), females, in feed, site: uterus, lesion: mesothelioma, dosed 144 weeks, study length 153 weeks) was 1.72 mg/kg/day, the TD50 (mouse, strain Monohybrid cross offspring of B6CF1 (C57BL/6 x BALB/c), males, in feed, site: pituitary gland, lesion: adenocarcinoma, dosed 147 weeks, study length 158 weeks) was 4.36 mg/kg/day and the TD50 (mouse, strain Monohybrid cross offspring of B6CF1 (C57BL/6 x BALB/c), males, in feed, site: pituitary gland, lesion: adenoma, dosed 147 weeks, study length 158 weeks) was 0.0794 mg/kg/day. For the same compound, the TD50 (mouse, strain Monohybrid cross offspring of B6CF1 (C57BL/6 x BALB/c), males, in feed, site: testis, lesion: interstitial-cell tumor, dosed 147 weeks, study length 158 weeks) was 0.0661 mg/kg/day, the TD50 (rat, strain Charles River CD (Sprague-Dawley), females, in feed, site: liver, lesion: hepatoma, dosed 91 weeks, study length 104 weeks) was 0.13 mg/kg/day (inactive) and the TD50 (rat, strain Charles River CD (Sprague-Dawley), males, in feed, site: adrenal gland, lesion: cortical adenoma, dosed 66 weeks, study length 66 weeks) was 0.39 mg/kg/day. The TD50 (rat, strain Charles River CD (Sprague-Dawley), males, in feed, site: liver, lesion: carcinoma, dosed 66 weeks, study length 66 weeks) was 1.21 mg/kg/day, the TD50 (rat, strain Charles River CD (Sprague-Dawley), males, in feed, site: liver, lesion: nodular hyperplasia, dosed 66 weeks, study length 66 weeks) was 0.39 mg/kg/day and the carcinogen call (rat, strain Charles River CD (Sprague-Dawley), males, in feed, site: liver, lesion: one or several types, types not named, dosed 91 weeks, study length 104 weeks) was “negative (inactive)”. The TD50 (rat, strain Charles River CD (Sprague-Dawley), males, in feed, site: pituitary gland, lesion: chromophobe adenoma, dosed 66 weeks, study length 66 weeks) was 0.114 mg/kg/day, the TD50 (rat, strain Sprague-Dawley, females, by gavage, site: liver, lesion: hepatocellular adenoma, dosed 52 weeks, study length 52 weeks) was 16.3 mg/kg/day and the TD50 (rat, strain Sprague-Dawley, females, by gavage, site: liver, lesion: hepatocellular carcinoma, dosed 52 weeks, study length 52 weeks) was 4.8 mg/kg/day. It also gave a TD50 (rat, strain Sprague-Dawley, females, by gavage, site: pituitary gland, lesion: adenoma, dosed 52 weeks, study length 52 weeks) of 7.68 mg/kg/day.
